Data: ChEMBL document CHEMBL1144680, “Structure-guided design of aminopyrimidine amides as potent, selective inhibitors of lymphocyte specific kinase: synthesis, structure-activity relationships, and inhibition of in vivo T cell activation” (J Med Chem, 2008)
Calls of active or inactive are those of the source. The calls are words filed in the database; no cut-off is given here.

Columns and labels:
Blood [1] = test: Inhibition of LPS-induced TNFalpha production in human whole blood by ELISA; assay type: functional, tissue-based
[2] = molecular target: T1, Tyrosine-protein kinase JAK3 (Homo sapiens, UniProt P52333); test: Inhibition of Jak3 by HTRF assay
T1 sequence (P52333 whole entry): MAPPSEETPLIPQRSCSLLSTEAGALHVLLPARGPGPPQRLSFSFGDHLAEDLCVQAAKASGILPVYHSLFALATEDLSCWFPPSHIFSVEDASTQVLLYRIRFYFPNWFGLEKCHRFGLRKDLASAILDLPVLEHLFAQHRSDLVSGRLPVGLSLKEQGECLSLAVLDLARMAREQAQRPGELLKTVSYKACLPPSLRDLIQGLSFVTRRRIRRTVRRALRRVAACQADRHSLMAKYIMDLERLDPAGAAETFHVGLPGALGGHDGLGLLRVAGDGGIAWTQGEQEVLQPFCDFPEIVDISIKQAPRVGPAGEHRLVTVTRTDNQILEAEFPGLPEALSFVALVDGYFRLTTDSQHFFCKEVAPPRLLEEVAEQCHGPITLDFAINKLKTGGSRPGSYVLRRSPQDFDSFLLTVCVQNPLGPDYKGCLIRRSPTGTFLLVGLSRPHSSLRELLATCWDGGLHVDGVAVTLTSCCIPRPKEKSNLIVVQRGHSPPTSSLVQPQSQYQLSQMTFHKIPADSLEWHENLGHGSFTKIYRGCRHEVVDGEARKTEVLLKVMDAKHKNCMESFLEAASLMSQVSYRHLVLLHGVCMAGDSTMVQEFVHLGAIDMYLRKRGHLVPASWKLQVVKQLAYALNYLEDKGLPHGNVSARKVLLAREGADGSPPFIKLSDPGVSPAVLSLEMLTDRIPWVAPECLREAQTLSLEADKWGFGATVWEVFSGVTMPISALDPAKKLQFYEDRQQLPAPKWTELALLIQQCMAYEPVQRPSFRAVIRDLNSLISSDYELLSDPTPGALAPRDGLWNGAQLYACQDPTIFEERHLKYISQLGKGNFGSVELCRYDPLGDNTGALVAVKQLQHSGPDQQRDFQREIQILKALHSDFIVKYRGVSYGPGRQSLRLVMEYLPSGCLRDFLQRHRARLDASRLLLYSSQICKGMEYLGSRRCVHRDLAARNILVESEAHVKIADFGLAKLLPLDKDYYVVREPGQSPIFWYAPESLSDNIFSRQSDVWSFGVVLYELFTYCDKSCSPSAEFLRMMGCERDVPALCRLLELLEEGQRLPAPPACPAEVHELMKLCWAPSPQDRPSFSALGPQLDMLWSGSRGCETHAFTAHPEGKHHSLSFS

[3] = molecular target: Vascular endothelial growth factor receptor 2 (Homo sapiens, UniProt P35968); test: Inhibition of KDR by HTRF assay
Vascular endothelial growth factor receptor 2, sequence (P35968 whole entry): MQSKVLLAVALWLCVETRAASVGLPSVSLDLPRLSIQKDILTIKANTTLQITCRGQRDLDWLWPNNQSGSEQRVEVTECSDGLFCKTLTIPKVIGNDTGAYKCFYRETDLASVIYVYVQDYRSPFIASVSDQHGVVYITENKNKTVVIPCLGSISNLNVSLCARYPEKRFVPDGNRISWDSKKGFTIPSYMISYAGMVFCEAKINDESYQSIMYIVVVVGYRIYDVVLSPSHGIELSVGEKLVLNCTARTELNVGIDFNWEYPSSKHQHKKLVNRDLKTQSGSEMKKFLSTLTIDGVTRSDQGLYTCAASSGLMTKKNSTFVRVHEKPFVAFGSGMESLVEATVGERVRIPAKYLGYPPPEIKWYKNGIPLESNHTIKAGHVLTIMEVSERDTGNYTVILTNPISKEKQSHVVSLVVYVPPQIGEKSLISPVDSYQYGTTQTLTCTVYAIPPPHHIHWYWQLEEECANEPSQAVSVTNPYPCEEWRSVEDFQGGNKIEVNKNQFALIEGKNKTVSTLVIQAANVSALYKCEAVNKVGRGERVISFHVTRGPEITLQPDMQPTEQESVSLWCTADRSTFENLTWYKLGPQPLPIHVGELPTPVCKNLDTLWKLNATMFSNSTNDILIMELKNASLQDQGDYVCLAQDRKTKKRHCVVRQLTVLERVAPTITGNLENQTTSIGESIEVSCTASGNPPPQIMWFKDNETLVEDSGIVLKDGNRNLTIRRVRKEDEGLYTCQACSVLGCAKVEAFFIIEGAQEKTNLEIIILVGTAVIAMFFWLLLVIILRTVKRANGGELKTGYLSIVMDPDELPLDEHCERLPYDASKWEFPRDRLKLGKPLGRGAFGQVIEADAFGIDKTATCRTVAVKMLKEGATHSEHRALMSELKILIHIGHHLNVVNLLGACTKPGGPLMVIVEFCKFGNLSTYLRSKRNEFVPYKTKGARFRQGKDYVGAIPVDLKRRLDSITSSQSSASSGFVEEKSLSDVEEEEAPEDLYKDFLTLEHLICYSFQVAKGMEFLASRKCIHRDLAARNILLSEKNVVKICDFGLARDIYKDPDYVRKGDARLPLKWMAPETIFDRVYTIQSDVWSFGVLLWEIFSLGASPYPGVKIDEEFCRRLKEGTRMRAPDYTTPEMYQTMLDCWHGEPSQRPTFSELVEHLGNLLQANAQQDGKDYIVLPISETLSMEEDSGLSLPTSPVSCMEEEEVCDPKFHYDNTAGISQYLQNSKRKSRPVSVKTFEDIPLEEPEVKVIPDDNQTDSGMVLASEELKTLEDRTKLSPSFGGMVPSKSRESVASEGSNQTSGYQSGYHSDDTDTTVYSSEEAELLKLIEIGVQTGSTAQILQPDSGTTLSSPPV

Blood [4] = test: Inhibition of anti-CD3-induced IL2 production in human whole blood by ELISA; assay type: functional, tissue-based
Lymphocyte = test: Inhibition of T cell activation in human peripheral blood lymphocytes by mixed lymphocyte reaction; assay type: functional, cell-based
Angiopoietin-1 receptor = Angiopoietin-1 receptor (Homo sapiens, UniProt Q02763); test: Inhibition of Tie2 by HTRF assay
Angiopoietin-1 receptor, sequence (Q02763 whole entry): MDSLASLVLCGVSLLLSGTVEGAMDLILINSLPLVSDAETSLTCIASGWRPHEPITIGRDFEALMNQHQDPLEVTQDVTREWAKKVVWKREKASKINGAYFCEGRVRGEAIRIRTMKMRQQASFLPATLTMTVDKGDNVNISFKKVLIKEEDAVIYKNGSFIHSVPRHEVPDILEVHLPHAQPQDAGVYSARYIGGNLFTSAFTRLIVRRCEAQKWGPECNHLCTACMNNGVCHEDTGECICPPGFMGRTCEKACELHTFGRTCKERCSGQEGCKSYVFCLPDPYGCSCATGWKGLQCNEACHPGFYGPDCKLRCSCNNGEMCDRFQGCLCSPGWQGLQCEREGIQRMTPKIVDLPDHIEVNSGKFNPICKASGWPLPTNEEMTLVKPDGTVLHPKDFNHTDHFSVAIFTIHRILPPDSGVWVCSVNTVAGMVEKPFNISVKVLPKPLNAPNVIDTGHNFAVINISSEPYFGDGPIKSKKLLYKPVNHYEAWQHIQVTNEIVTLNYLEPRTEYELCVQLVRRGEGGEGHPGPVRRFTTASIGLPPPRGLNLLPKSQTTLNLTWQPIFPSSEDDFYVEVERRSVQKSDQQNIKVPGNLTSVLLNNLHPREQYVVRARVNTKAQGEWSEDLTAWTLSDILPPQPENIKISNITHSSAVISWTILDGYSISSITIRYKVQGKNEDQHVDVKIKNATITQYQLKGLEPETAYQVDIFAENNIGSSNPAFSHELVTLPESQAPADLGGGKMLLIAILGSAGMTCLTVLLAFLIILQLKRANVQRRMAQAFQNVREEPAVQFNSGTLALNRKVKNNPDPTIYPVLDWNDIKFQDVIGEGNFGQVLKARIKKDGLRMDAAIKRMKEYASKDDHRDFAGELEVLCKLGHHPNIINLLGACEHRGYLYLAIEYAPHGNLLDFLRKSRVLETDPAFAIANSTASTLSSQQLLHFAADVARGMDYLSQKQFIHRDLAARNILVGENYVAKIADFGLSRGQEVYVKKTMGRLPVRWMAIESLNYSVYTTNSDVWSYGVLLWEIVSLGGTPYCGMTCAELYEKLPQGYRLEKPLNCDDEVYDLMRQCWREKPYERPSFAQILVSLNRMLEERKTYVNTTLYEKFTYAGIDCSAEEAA

[5] = Volume of distribution at steady state in Sprague-Dawley rat at 0.5 mg/kg, iv; assay type: ADME, organism-based; design: dose 0.5 mg/kg, route intravenous; conditions: in vivo, read-out: Vdss
[6] = AUC (0 to infinity) in Sprague-Dawley rat at 2 mg/kg, po; assay type: ADME, organism-based; design: time infinity, dose 2 mg/kg, route oral; conditions: plasma
[7] = Clearance in Sprague-Dawley rat at 0.5 mg/kg, iv; assay type: ADME, organism-based; design: dose 0.5 mg/kg, route intravenous; conditions: in vivo
[8] = Tmax in Sprague-Dawley rat at 2 mg/kg; assay type: ADME, organism-based; design: dose 2 mg/kg; conditions: in vivo
[9] = Half life in Sprague-Dawley rat at 0.5 mg/kg, iv; assay type: ADME, organism-based; design: dose 0.5 mg/kg, route intravenous; conditions: in vivo
[10] = Oral bioavailability in Sprague-Dawley rat at 2 mg/kg; assay type: ADME, organism-based; conditions: in vivo
[11] = Protein binding in rat plasma; assay type: ADME, cell-free; conditions: read-out: PB (converted)
[12] = molecular target: Mitogen-activated protein kinase 14 (Homo sapiens, UniProt Q16539); test: Inhibition of p38alpha by HTRF assay
Mitogen-activated protein kinase 14, sequence (Q16539 whole entry): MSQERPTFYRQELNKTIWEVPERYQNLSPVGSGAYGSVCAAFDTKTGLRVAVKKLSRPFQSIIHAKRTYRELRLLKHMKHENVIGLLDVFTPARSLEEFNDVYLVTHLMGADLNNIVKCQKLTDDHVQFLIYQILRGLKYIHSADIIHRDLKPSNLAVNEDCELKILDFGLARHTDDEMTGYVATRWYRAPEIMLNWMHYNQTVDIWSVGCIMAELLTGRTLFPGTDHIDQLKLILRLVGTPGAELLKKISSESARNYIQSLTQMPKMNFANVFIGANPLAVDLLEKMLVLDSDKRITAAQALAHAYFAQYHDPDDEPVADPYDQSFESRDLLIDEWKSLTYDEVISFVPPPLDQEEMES

[13] = Protein binding in mouse plasma; assay type: ADME, cell-free; conditions: read-out: PB (converted)
[14] = molecular target: Tyrosine-protein kinase Lck (Homo sapiens, UniProt P06239)
Tyrosine-protein kinase Lck, sequence (P06239 whole entry): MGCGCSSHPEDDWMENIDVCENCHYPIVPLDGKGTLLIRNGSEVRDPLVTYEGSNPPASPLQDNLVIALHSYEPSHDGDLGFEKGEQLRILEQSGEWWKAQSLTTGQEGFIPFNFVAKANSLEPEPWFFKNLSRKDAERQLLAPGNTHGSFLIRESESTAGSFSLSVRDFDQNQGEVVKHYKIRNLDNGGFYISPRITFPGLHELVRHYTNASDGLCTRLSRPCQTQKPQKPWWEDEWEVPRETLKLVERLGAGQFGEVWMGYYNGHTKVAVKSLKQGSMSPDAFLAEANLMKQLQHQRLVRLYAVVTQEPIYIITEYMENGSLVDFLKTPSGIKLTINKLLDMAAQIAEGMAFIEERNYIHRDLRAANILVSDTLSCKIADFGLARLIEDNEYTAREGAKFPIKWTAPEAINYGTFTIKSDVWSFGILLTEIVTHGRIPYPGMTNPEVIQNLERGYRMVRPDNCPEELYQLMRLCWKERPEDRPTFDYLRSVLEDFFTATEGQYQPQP
Description: Inhibition of Lck by HTRF assay

[15] = Cmax in Sprague-Dawley rat at 2 mg/kg, po; assay type: ADME, organism-based; design: dose 2 mg/kg, route oral; conditions: in vivo
[16] = molecular target: Ribosomal protein S6 kinase beta-1 (Homo sapiens, UniProt P23443); test: Inhibition of P70S6K by HTRF assay
Ribosomal protein S6 kinase beta-1, sequence (P23443 whole entry): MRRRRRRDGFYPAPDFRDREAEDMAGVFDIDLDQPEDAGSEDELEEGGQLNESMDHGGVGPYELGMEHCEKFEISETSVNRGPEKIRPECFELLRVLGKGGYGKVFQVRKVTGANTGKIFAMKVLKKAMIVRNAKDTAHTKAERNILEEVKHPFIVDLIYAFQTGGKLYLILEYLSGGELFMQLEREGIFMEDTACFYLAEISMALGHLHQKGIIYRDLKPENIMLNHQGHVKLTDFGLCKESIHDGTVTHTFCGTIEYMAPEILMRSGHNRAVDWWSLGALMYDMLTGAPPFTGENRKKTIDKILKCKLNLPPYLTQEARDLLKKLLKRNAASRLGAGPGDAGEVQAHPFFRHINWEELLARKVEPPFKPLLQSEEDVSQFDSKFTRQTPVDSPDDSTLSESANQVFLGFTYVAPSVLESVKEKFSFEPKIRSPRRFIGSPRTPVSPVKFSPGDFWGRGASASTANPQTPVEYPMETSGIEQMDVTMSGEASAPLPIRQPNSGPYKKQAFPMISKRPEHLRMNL

[17] = molecular target: Tyrosine-protein kinase Lyn (Homo sapiens, UniProt P07948); test: Inhibition of Lyn by HTRF assay
Tyrosine-protein kinase Lyn, sequence (P07948 whole entry): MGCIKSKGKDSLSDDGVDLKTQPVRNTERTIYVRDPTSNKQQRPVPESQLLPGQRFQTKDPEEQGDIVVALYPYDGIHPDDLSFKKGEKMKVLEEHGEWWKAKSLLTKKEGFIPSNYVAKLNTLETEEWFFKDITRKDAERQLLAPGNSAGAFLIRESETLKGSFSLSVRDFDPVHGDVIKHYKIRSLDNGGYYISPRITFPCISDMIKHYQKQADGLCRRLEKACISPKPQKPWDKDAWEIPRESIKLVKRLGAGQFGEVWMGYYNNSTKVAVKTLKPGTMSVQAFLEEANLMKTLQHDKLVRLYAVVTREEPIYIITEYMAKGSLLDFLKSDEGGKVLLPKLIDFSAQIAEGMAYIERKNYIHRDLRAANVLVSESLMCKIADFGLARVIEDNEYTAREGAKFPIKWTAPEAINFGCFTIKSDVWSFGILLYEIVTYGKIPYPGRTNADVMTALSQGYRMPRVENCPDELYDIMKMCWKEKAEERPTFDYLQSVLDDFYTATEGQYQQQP

[18] = molecular target: Tyrosine-protein kinase SYK (Homo sapiens, UniProt P43405); test: Inhibition of Syk by HTRF assay
[19] = molecular target: Macrophage colony-stimulating factor 1 receptor (Homo sapiens, UniProt P07333); test: Inhibition of cFMS by HTRF assay
[20] = molecular target: Mitogen-activated protein kinase 9 (Homo sapiens, UniProt P45984); test: Inhibition of JNK2 by HTRF assay
[21] = molecular target: Tyrosine-protein kinase ITK/TSK (Homo sapiens, UniProt Q08881); test: Inhibition of Itk by HTRF assay
Mus musculus [22] = test: Plasma concentration in BALB/c mouse at 30 mg/kg, po; assay type: ADME, organism-based; design: dose 30 mg/kg, route oral; conditions: in vivo
[23] = Inhibition of PKBalpha by HTRF assay
[24] = molecular target: Serine/threonine-protein kinase PAK 2 (Homo sapiens, UniProt Q13177); test: Inhibition of PAK2 by HTRF assay
[25] = Inhibition of IRK by HTRF assay
[26] = Inhibition of PKAalpha by HTRF assay
[27] = molecular target: Mitogen-activated protein kinase 3 (Homo sapiens, UniProt P27361); test: Inhibition of ERK1 by HTRF assay
Mitogen-activated protein kinase 3, sequence (P27361 whole entry): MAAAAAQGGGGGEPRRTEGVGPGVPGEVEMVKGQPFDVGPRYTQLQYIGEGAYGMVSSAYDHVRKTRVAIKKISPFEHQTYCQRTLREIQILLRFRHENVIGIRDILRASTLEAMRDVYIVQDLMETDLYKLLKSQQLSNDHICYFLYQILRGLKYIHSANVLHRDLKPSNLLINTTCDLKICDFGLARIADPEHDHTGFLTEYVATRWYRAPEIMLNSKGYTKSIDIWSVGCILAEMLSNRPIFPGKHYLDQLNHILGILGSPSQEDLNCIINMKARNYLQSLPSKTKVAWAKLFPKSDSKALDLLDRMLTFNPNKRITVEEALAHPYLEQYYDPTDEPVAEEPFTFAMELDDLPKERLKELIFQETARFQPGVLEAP

Mus musculus [28] = test: Inhibition of anti-CD3-induced IL2 production in orally dosed BALB/c mouse by ELISA; assay type: functional; conditions: po
Mus musculus [29] = test: Plasma concentration in BALB/c mouse at 100 mg/kg, po; assay type: ADME, organism-based; design: dose 100 mg/kg, route oral; conditions: in vivo
[30] = molecular target: Proto-oncogene tyrosine-protein kinase Src (Homo sapiens, UniProt P12931); test: Inhibition of Src by HTRF assay
Jurkat = test: Inhibition of IL2 production in human Jurkat cells stimulated with phorbol 12-myristyl 13-acetate in presence of calcium ionophore; assay type: functional, cell-based
[31] = molecular target: Serine/threonine-protein kinase pim-1 (Homo sapiens, UniProt P11309); test: Inhibition of PIM1 by HTRF assay
Mus musculus [32] = test: Inhibition of anti-CD3-induced IL2 production in BALB/c mouse at 10 mg/kg, po by ELISA relative to control; assay type: functional
[33] = molecular target: Macrophage-stimulating protein receptor (Homo sapiens, UniProt Q04912); test: Inhibition of RON by HTRF assay
Mus musculus [34] = test: Inhibition of anti-CD3-induced IL2 production in BALB/c mouse at 30 mg/kg, po by ELISA relative to control; assay type: functional
Mus musculus [35] = test: Inhibition of anti-CD3-induced IL2 production in BALB/c mouse at 100 mg/kg, po by ELISA relative to control; assay type: functional
[36] = molecular target: High affinity nerve growth factor receptor (Homo sapiens, UniProt P04629); test: Inhibition of TrkA by HTRF assay
Plasma = test: Unbound EC50 of ligand in mouse plasma
[37] = molecular target: Tyrosine-protein kinase ABL1 (Homo sapiens, UniProt P00519); test: Inhibition of Abl by HTRF assay
Mus musculus [38] = test: Plasma concentration in BALB/c mouse at 10 mg/kg, po; assay type: ADME, organism-based; design: dose 10 mg/kg, route oral; conditions: in vivo
[39] = Inhibition of Aurora2 by HTRF assay
[40] = molecular target: Tyrosine-protein kinase Fyn (Homo sapiens, UniProt P06241); test: Inhibition of Fyn by HTRF assay
[41] = Inhibition of Aurora1 by HTRF assay
Mus musculus [42] = organism: Mus musculus; test: Inhibition of anti-CD3-induced IL2 production in BALB/c mouse; assay type: functional
[43] = molecular target: Ribosomal protein S6 kinase alpha-5 (Homo sapiens, UniProt O75582); test: Inhibition of MSK1 by HTRF assay

Cc1ccc(NC(=O)c2cccc(C(F)(F)F)c2)cc1C(=O)Nc1cnc(N)nc1
IC50 (Blood [1]): > 10 µM | IC50 [2]: > 25 µM | IC50 [3]: 0.125 µM | IC50 (Blood [4]): 1.27 µM | IC50 (Lymphocyte): 0.107 µM | IC50 (Angiopoietin-1 receptor): > 25 µM

COc1cc(OC)cc(C(=O)Nc2ccc(C)c(C(=O)Nc3cnc(Nc4ccc(N5CCN(C)CC5)cc4)nc3)c2)c1
Vd [5]: 0.79 L/kg | AUC(0-inf) [6]: 0.528 µg·h/mL | clearance [7]: 0.29 L/h/kg | IC50 [2]: > 25 µM | Tmax [8]: 0.33 h | half-life [9]: 2.5 h | IC50 [3]: 0.12 µM | bioavailability [10]: 8% | IC50 (Blood [4]): 0.043 µM | fraction unbound [11]: 0.017 | IC50 (Lymphocyte): 0.077 µM | IC50 [12]: 0.004 µM | fraction unbound [13]: 0.012 | IC50 [14]: 0.0014 µM | Cmax [15]: 0.191 µg/mL | IC50 (Angiopoietin-1 receptor): > 8.3 µM

Cc1ccc(NC(=O)c2cc(F)cc(C(F)(F)F)c2)cc1C(=O)Nc1cnc(Nc2ccc(N3CCN(C)CC3)cc2)nc1
IC50 (Blood [1]): 1.01 µM | Vd [5]: 1.61 L/kg | AUC(0-inf) [6]: 0.332 µg·h/mL | clearance [7]: 0.49 L/h/kg | IC50 [2]: > 25 µM | Tmax [8]: 0.6 h | half-life [9]: 3.8 h | IC50 [3]: 0.017 µM | bioavailability [10]: 8% | IC50 (Blood [4]): 0.016 µM | fraction unbound [11]: 0.023 | IC50 (Lymphocyte): 0.021 µM | IC50 [12]: 0.003 µM | fraction unbound [13]: 0.018 | IC50 [14]: 0.0003 µM | Cmax [15]: 0.039 µg/mL | IC50 (Angiopoietin-1 receptor): 6.08 µM

Cc1ccc(NC(=O)c2cccc(C(F)(F)F)c2C)cc1C(=O)Nc1cnc(Nc2ccc(N3CCN(C)CC3)cc2)nc1
IC50 (Blood [1]): 1.37 µM | Vd [5]: 5.45 L/kg | AUC(0-inf) [6]: 0.092 µg·h/mL | clearance [7]: 2.92 L/h/kg | IC50 [2]: > 25 µM | Tmax [8]: 2.75 h | half-life [9]: 1.8 h | IC50 [3]: 0.054 µM | bioavailability [10]: 7% | IC50 (Blood [4]): 0.002 µM | fraction unbound [11]: 0.014 | IC50 (Lymphocyte): 0.06 µM | IC50 [12]: 0.012 µM | fraction unbound [13]: 0.016 | Cmax [15]: 0.028 µg/mL | IC50 (Angiopoietin-1 receptor): > 8.3 µM

Cc1ccc(NC(=O)c2cccc(C(F)(F)F)c2)cc1C(=O)Nc1cnc(Nc2ccc(N3CCN(C)CC3)cc2)nc1
IC50 [16]: > 100 µM | IC50 (Blood [1]): 0.718 µM | IC50 [17]: 0.0009 µM | IC50 [18]: > 5 µM | Vd [5]: 3.29 L/kg | AUC(0-inf) [6]: 0.419 µg·h/mL | clearance [7]: 1.04 L/h/kg | IC50 [19]: 0.04 µM | IC50 [20]: 4.29 µM | IC50 [21]: > 25 µM | IC50 [2]: > 25 µM | concentration (Mus musculus [22]): 0.434 µM | Tmax [8]: 4.67 h | half-life [9]: 3.2 h | IC50 [23]: > 100 µM | IC50 [24]: > 25 µM | IC50 [25]: > 5 µM | IC50 [26]: > 85 µM | IC50 [27]: > 100 µM | IC50 [3]: 0.024 µM | ED50 (Mus musculus [28]): 9.4 mg/kg | concentration (Mus musculus [29]): 1.54 µM | bioavailability [10]: 22% | IC50 [30]: 0.003 µM | IC50 (Blood [4]): 0.007 µM | IC50 (Jurkat): > 20 µM | IC50 [31]: > 30 µM | fraction unbound [11]: 0.006 | inhibition in vivo at 10 mg/kg (Mus musculus [32]): 53% | IC50 [33]: > 25 µM | inhibition in vivo at 30 mg/kg (Mus musculus [34]): 89% | IC50 (Lymphocyte): 0.011 µM | inhibition in vivo at 100 mg/kg (Mus musculus [35]): 91% | IC50 [36]: > 5 µM | EC50 unbound (Plasma): 0.004 µM | IC50 [37]: 0.002 µM | concentration (Mus musculus [38]): 0.176 µM | IC50 [12]: 0.005 µM | IC50 [39]: > 25 µM | IC50 [40]: 0.003 µM | IC50 [41]: > 8.3 µM | Activity (Mus musculus [42]): Active | IC50 [43]: > 100 µM | fraction unbound [13]: 0.022 | IC50 [14]: 0.0006 µM | Cmax [15]: 0.049 µg/mL | IC50 (Angiopoietin-1 receptor): 9.95 µM

C/C=C/C[C@@H](C)[C@@H](O)[C@H]1C(=O)N[C@@H](CC)C(=O)N(C)CC(=O)N(C)[C@@H](CC(C)C)C(=O)N[C@@H](C(C)C)C(=O)N(C)[C@@H](CC(C)C)C(=O)N[C@@H](C)C(=O)N[C@H](C)C(=O)N(C)[C@@H](CC(C)C)C(=O)N(C)[C@@H](CC(C)C)C(=O)N(C)[C@@H](C(C)C)C(=O)N1C [CYCLOSPORINE]
ED50 (Mus musculus [42]): 10 mg/kg
